# Data from patent US5403824A, “Methods for the treatment of osteoporosis” (The Procter & Gamble Company, priority 1993, dated 1995).
# Key:
# [1] = tested on: human subject with postmenopausal osteoporosis or low bone mass; test: treatment of human subject with osteoporosis, vertebral density by dual-energy photon absorptiometry; type: in vivo
# Experimental: A human subject weighing about 60 kg (132 lbs), suffering from postmenopausal osteoporosis, is treated by a method of this invention. Specifically, for two years, the enkephalin-degrading enzyme inhibitor DL-3-mercapto-2-benzylpropanoylglycine is administered orally, in a cyclical regimen, where each cycle consists of an active period of 28 days during which a tablet containing 160 mg of said inhibitor is administered each day, followed by a non-active period of 28 days during which the subject receives a daily supplement of calcium (1,000 mg/day), with repeat of cycle.
# A human subject weighing about 60 kg (132 lbs), suffering from postmenopausal osteoporosis, is treated by a method of this invention. Specifically, for two years, the compound H-Tyr-D-Ala-Gly-Phe-D-Leu-OH ("DADLE") is administered to the subject, in a cyclical regimen, where each cycle consists of an active period of 28 days during which a solution containing 30 mg of DADLE is administered intravenously every day, followed by a non-active period of 28 days during which the patient receives a daily supplement of calcium (1,000 mg/day), with repeat of cycle.
# (§1) A human subject weighing about 60 kg (132 lbs), suffering from postmenopausal osteoporosis, is treated by a method of this invention. Specifically, for two years, an enkephalin of the formula Tyr-D-Cys(S-t-butylthioether)-Gly-Phe-Leu-Thr(O-t-butylether) ("BUBUC") is administered to the subject, in a cyclical regimen, where each cycle consists of an active period of 28 days during which a solution containing 30 mg of BUBUC is intravenously administered each day, followed by a non-active period of 28 days during which the patient receives a daily supplement of calcium (1,000 mg/day), with repeat of cycle.
# as §1, with “years, the” for “years, an”, “enkephalin secretagogue Tyr-Arg^1,” for “enkephalin of the formula Tyr-D-Cys(S-t-butylthioether)-Gly-Phe-Leu-Thr(O-t-butylether) ("BUBUC")”, “of Tyr-Arg” for “of BUBUC”, “the subject” for “the patient”, “cycle. […]” for “cycle.”
# A human subject weighing about 60 kg (132 lbs), suffering from postmenopausal osteoporosis, is treated by a method of this invention. Specifically, each day for five years, the subject is administered 3 tablets, comprised as follows.
# A human subject weighing about 60 kg (132 lbs) is evaluated approximately four years after spontaneous menopause, and is found to have low bone mass. The subject is then treated by a method of this invention to treat osteoporosis. Specifically, once each month for five years, the subject is administered, via intravenous injection, 5 ml of a solution comprised as follows.
# [2] = tested on: Rat osteoblast-like cells (ROS 17/2.8); test: [3H]-thymidine incorporation, proliferation of osteoblast-like cells; type: cell-based; conditions: ROS 17/2.8, 18 hrs incubation, 2 hrs pulse
# From the text: Stimulation of osteoblast-like cell proliferation can be measured according to several art-recognized in vitro models. One such model is described in European Patent Publication No. 384,731, by Rodan et al, published Aug. 29, 1990, which is incorporated herein by reference. (Applicants have modified this method by reducing regent volumes to one-quarter those described and by utilizing Dulbecco's Modified eagle's Medium (DMEM).) In this model, proliferation (division) of, for example, rat osteoblast-like cells (rat osteosarcoma (ROS) cells, rat calvaria cells, etc.) is observed by measuring the amount of radiolabeled thymidine ([^3 H]thymidine) incorporated by these cells. ([^3 H]thymidine is "incorporated" by cellular DNA being synthesized as a result of cell proliferation.) The greater the level of [^3 H]thymidine measured, the greater the amount of proliferation of the osteoblast cells.
# More specifically, a test sample (comprised of a test compound and osteoblast-like cells) and a control sample (comprised of only osteoblast-like cells) are pulsed with [^3 H]thymidine. The amount of [^3 H]thymidine incorporated by the cells is measured using a direct beta counter.
# Rat osteoblast-like cells (ROS 17/2.8) are plated at 4×10^3 cells/well in a 96-well plate in Dulbecco's Modified eagle's Medium supplemented with 2% (v/v) Fetal Bovine Serum, and incubated for 6 hrs. Control (serum-free) medium and test medium (test sample and serum-free medium) are then added to the cells and this combination is incubated for 18 hrs. The cells are then pulsed with [^3 H]-thymidine (1 μCi/well) for 2 hrs. The medium is then removed, the cells are harvested onto glass fibre filters and the amount of [^3 H]-thymidine (counts per minute per well) incorporated into DNA is then determined using a direct beta counter. Values for control groups are then compared to values for treated groups.
# (§2) The compound H-Tyr-D-Ala-Gly-Phe-D-Leu-OH ("DADLE") is screened to determine whether it stimulates proliferation of osteoblast-like cells. […] The medium is then removed, the cells are harvested onto glass fibre filters, and the amount of ^3 H-thymidine (counts per minute per well) incorporated into DNA is determined using a direct beta counter. […]
# as §2, with “Tyr-D-Cys(S-t-butylthioether)-Gly-Phe-Leu-Thr(O-t-butylether) ("BUBUC")” for “H-Tyr-D-Ala-Gly-Phe-D-Leu-OH ("DADLE")”
structure (smiles),measurement,setting,value
O=C(O)CNC(=O)C(CS)Cc1ccccc1 (racemic) [DL-3-mercapto-2-benzyl-propanoylglycine],density of vertebrae / bone mass,[1]; Example 7: 3 tablets of 50.0 mg each day for five years,no significant loss in bone mass has occurred
same,density of vertebrae / bone mass,"[1]; oral tablet 160 mg daily, 28 days active / 28 days calcium, two years",an increase in bone mass
same,[3H]-thymidine incorporation (proliferation) vs control,[2],significantly stimulated proliferation of the osteoblast-like cells
